Data reported in paper PMC9249674, “A small-molecule Skp1 inhibitor elicits cell death by p53-dependent mechanism” (iScience, 2022).

Assays:
[1] = molecular target: T1, Skp1-ΔSkp2^F−box-peptide interaction (Homo sapiens, UniProt P63208); experiment: FP-based in vitro competition assay; type: binding; settings: for Ki: calculated from IC50 with Ki calculator
T1 construct: recombinantly purify intact (Skp1^WT) and truncate (ΔSkp1^1−140; lacking H8-helix) forms of Skp1; His6; made in house; host or cells: Escherichia coli BL21 (DE3)
Protocol: FP measurements were performed using an EnVision multilabel Reader (Perkin Elmer). […] Lyophilized F-box-FAM peptide was initially dissolved in a Tris buffer (20 mM Tris-HCl pH 9.0, 150 mM NaCl, 2 mM DTT), and then a stock solution of 100 μM was prepared by subsequent dilutions in a FP buffer (20 mM Tris-HCl pH 8.0, 150 mM NaCl, 2 mM DTT, 5% (v/v) glycerol, 0.001% (v/v) Triton X-100). Specific controls groups included free F-box-FAM (tracer), bound F-box-FAM in the presence of protein (Skp1^WT or ΔSkp1^1−140), and FP buffer for every measurement, allowing accurate estimation of specific polarization.
The selected subset of compounds were initially assayed at final concentration of 200 μM. The compounds were incubated at room temperature with Skp1^WT for 1 hr, followed by the addition of the tracer. […] After incubation for another 2 hrs, FP signals was measured on an EnVision multilabel Reader. The FP response was measured in quadruplicates with controls including free F-box-FAM (tracer), bound Skp1^WT-F-box-FAM, and FP buffer. The resultant FP values were plotted as bar graphs using ORIGIN Lab software.
For gradient FP assay, protein samples were mixed with an appropriate concentrations of ligand over the range of several folds. […] The IC50 value of the compound in the gradient-concentration assay was determined with nonlinear regression and fitting using the following equation in GraphPad Prism® v6.0 (San Diego, CA). Y = Bottom + (Top – Bottom)/(1 + 10^X−LogIC50). […] In short, the relationship between the IC50 of the inhibitor and the Ki of the inhibitor depends on the KD of the fluorescent ligand and the concentration of the receptor.

Skp1^WT [2] = molecular target: T2, Skp1^WT (Homo sapiens, UniProt P63208); experiment: Thermal shift assay (TSA); type: binding; settings: protein 8 μM
T2 construct: recombinantly purify intact (Skp1^WT) and truncate (ΔSkp1^1−140; lacking H8-helix) forms of Skp1; His6; made in house; host or cells: Escherichia coli BL21 (DE3)
From the text: (§1) TSA, also known as differential scanning fluorimetry (DSF), is used to identify the contribution of a ligand binding to an unfolding protein as a function of temperature. The detection involves increase in fluorescence of a fluorophore SYPRO Orange (Invitrogen) upon binding to the hydrophobic regions of the gradually unfolded protein. A ligand stabilizing a protein may increase the melting temperature (Tm). To detect the binding of Z0933M with Skp1, a gradient TSA was used, in which, protein samples were mixed with appropriate concentrations of ligand over the range of several folds. The protein (Skp1^WT or ΔSkp1^1−140) was kept constant at 8 μM, and the compound concentration was varied from 50 μM to 600 μM. For comparison with 6-OAP, a single concentration of 400 μM was tested with both Skp1^WT and ΔSkp1^1−140. All reactions were set up in final volume of 10 μL in 96-well plate with 1x SYPRO Orange (Invitrogen) and incubated with compounds on ice for 30 min. According to the experimental protocol, samples were heated at 0.5°C per minute, ranging from 30 to 90°C, and the fluorescence intensity was measured at the interval of 0.5°C. Appropriate buffer blank and protein-only controls were kept, and the shift in Tm was measured as ΔTm = Tm (ligand-protein) ‒ (protein-only). The resultant ΔTm values were plotted by using GraphPad Prism® v6.0 (San Diego, CA) and ORIGIN Lab softwares.

ΔSkp1^1−140 [3] = molecular target: T3, ΔSkp1^1−140 (Homo sapiens, UniProt P63208); experiment: Thermal shift assay (TSA); type: binding; settings: protein 8 μM
T3 construct: pETDuet-Skp1(1-140); His6; made in house; host or cells: Escherichia coli BL21 (DE3)
From the text: as §1

H358 cells = experiment: Caspase-Glo 3/7 activity; type: cell-based; settings: dose- and time-dependent treatment
Protocol: The activities of caspase-3/7, −8 and −9 were measured using Caspase-Glo® 3/7,8, and 9 assay kits (Promega, Madison, WI, USA) according to the manufacturer’s protocol. Briefly, the cells were plated over-night in a white 384 well microplate, and then treated as indicated with Z0933M. After treatment, 25 μL of each caspase substrate was added and incubated at room temperature for 30 min. Upon activation of caspase in the apoptotic cells, the substrate will give a luminescence signal after cleavage of the aminoluciferin-labelled synthetic tetrapeptide. Luminescent signals were detected using an EnSpire multimode plate reader (PerkinElmer). For inhibitor interventions and Skp1 overexpression, the experiments were performed in 96 well format.

[4] = test system: panel of cell lines derived from hematologic and solid tumors; experiment: Cell viability, panel of cell lines; type: cell-based; settings: all the lines tested with complete cell killing; read-out: EC50 values across the panel
Protocol: For cell viability, cells were seeded in 384 opaque-walled plates with clear bottoms at 300–500 cells per well (optimum density for growth) in a total volume of 20 μL of media. The media was according to culture conditions of each individual cell line (mentioned above). After 12 hrs, compounds were added in a total volume of 5 μL of media (two-fold diluted) to each well with final concentrations from 5 nM to 30 μM. The measurements were conducted 48 hrs after seeding of the cells. Then, 25 μL of Cell-Titer GLO reagent (Promega) was added, and luminescence was measured on an EnSpire multimode plate reader (PerkinElmer), according to the manufacturer’s instructions. The estimated in vitro half-maximal inhibitory concentration (EC50) values were calculated using GraphPad Prism® v6.0 (San Diego, CA) software. The cell viability for A549 cells was also performed for 72- and 96-hrs by using the same experimental conditions as described above.

ΔSkp1^1−140 [5] = molecular target: T3, ΔSkp1^1−140; experiment: LC-MS/MS analysis of in vitro binding; settings: ΔSkp1^1−140, overnight incubation
Skp1^F139A = molecular target: T4, Skp1^F139A (Homo sapiens, UniProt P63208, F139A); experiment: LC-MS/MS analysis of in vitro binding; settings: Skp1^F139A mutant, overnight incubation
T4 construct: His6; made in house; host or cells: Escherichia coli BL21 (DE3)

ΔSkp1^1−140 [6] = molecular target: T3, ΔSkp1^1−140; experiment: SPRi assay; type: binding
Protocol: Freshly deposited gold coated standard SPRi chips/slides (Plexera, LLC) were cleaned, and compound(s) at 10 mM concentration in 100% DMSO were spotted on the chips using a micropipette. After this, the slides were left for complete evaporation of DMSO (under vacuum) at room temperature for 2 hrs. […] The slides were subsequently washed with DMSO, ethanol, and finally with distilled water for 15 minutes (ultrasonically), respectively, to remove non-covalently bound compounds. After drying with nitrogen, the slides were assembled with flow cell and then mounted on SPRi instrument for measurement, or stored at 4°C to be used for later experiments.
All the experiments were carried out using the PlexArray® HT system (Plexera, LLC), which is based on surface plasmon resonance imaging. Oval regions of interests (ROIs) were set as 9 pixels × 7 pixels area in imaging area. ROIs of vehicle (DMSO) were used as controls for measurement of specific signals. […] A 1:3 mixture of glycine. HCL (pH 4.2) and 0.5% (v/v) SDS, respectively, was used to regenerate the surface and remove bound proteins from the small molecules enabling the sensor chip to be reused for additional analyte injections.
The Tris buffer (10 mM Tris-HCl pH 8.0, 100 mM NaCl), without any reducing agent, was used as both analyte and running buffer. […]

Skp1-ΔF-box complex = experiment: LC-MS/MS analysis of in vitro binding; settings: overnight incubation
Skp1^WT [7] = molecular target: T2, Skp1^WT; experiment: LC-MS/MS analysis of in vitro binding; settings: overnight incubation

T3 sequence (P63208 1-140, stated change not applied): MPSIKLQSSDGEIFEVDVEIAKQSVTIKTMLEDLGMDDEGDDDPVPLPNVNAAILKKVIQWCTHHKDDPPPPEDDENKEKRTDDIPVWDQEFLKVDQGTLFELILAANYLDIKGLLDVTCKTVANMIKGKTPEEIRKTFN
T1 sequence (P63208 whole entry, stated change not applied, the tested form may be a part): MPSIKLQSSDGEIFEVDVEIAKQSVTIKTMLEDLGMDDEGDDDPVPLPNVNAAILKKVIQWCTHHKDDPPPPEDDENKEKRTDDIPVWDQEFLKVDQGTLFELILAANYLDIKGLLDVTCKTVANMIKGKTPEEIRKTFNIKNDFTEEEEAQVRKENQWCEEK
T2 sequence (P63208 whole entry, the tested form may be a part): as the sequence (P63208 whole entry, stated change not applied, the tested form may be a part) above
T4 sequence (P63208 whole entry F139A): as the sequence (P63208 whole entry, stated change not applied, the tested form may be a part) above, with F139A counted along it

Nc1ccc(-c2nc3ccccc3c3[nH]c4ccccc4c23)cc1 [Z0933M]
inhibition of Skp1-ΔSkp2^F−box-peptide interaction ([1]; 200 μM compound, 25 μM Skp1^WT, 500 nM tracer): almost completely disrupted
Ki [1]: 231 ± 18 nM
Ki ([1]; figure): ~231 nM
IC50 ([1]; dose-response FP, Skp1^WT 25 μM, tracer 500 nM): ~25000 nM
ΔTm at 50 µM (Skp1^WT [2]; 50 μM compound): 0.3 °C
ΔTm at 100 µM (Skp1^WT [2]; 100 μM compound): 0.6 °C
ΔTm at 200 µM (Skp1^WT [2]; 200 μM compound): 2.4 °C
ΔTm at 400 µM (Skp1^WT [2]; 400 μM compound): 7.8 °C
ΔTm at 600 µM (Skp1^WT [2]; 600 μM compound): 10.5 °C
ΔTm at 50 µM (ΔSkp1^1−140 [3]; 50 μM compound): 0.9 °C
ΔTm at 100 µM (ΔSkp1^1−140 [3]; 100 μM compound): 0.6 °C
ΔTm at 200 µM (ΔSkp1^1−140 [3]; 200 μM compound): 2.1 °C
ΔTm at 400 µM (ΔSkp1^1−140 [3]; 400 μM compound): 10.8 °C
ΔTm at 600 µM (ΔSkp1^1−140 [3]; 600 μM compound): 11.1 °C
caspase 3/7 activity (H358 cells): failed to do so
EC50 [4]: 250 to 4000 nM
binding by LC-MS/MS (ΔSkp1^1−140 [5]): robust binding
binding by LC-MS/MS (Skp1^F139A): markedly reduced
Kd (ΔSkp1^1−140 [6]): 40.4 ± 8.2 nM
binding by LC-MS/MS (Skp1-ΔF-box complex): robust binding
binding by LC-MS/MS (Skp1^WT [7]): robust binding
